# Reference: patent publication US20150291593A1, “NOVEL HETEROARYL AND HETEROCYCLE COMPOUNDS, COMPOSITIONS AND METHODS” (HUTCHISON MEDIPHARMA LIMITED, priority 2012, published 2015)
# Experiments:
# p110γ = biological target: T1, p110γ (Homo sapiens, UniProt P48736); experiment: Transcreener KINASE Assay, kinase inhibition of p110γ; format: biochemical; details: for IC50: read-out: PI3Kγ IC50
# T1 construct: purchased Invitrogen
# Experimental: PI3K kinases including p110α/p85α, p110δ/p85α and p110γ are purchased from Invitrogen, and p110β/p85α is from Millipore. Primary screening data and IC50 values are measured using Transcreener™ KINASE Assay (Bellbrook, Catalog #3003-10K). […] It is a universal, homogenous, high throughput screening (HTS) technology using a far-red, competitive fluorescence polarization immunoassay based on the detection of ADP to monitor the activity of enzymes that catalyze group transfer reactions. Briefly, the Transcreener KINASE Assay is designed as a simple two-part, endpoint assay. […] The plate is sealed and incubated for 80 min at room temperature. Next, 25 ul ADP detection mix is added per well. The plate is sealed again and incubated for 60 min at room temperature, and then measure fluorescence polarization by Tecan Infinite F500 Reader. Data is analyzed and IC50s are generated using the add-in software for Microsoft Excel, Xlfit™ (version 2.0).
# PI3Kγ = biological target: T2, PI3Kγ (Mus musculus, UniProt Q9JHG7); experiment: Acumen Assay - Raw264.7 p-AKT Assay (C5a stimulated); format: cell-based; details: Raw264.7 macrophage cells, compound 30 min, 10 nM C5a 5 min, p-AKT (Ser473) readout; read-out: PI3Kγ cell-C5a Raw264.7 IC50
# T2 construct: endogenous in cells; host or cells: Raw264.7 macrophage cells
# Experimental: Acumen® eX3 (A Mμltilaser Microplate Cytometer For Enhanced High Content Screening): TTP LabTech
# 3×10^4 Raw264.7 macrophage cells were seeded into 96-well plates with DMEM+10% heat-inactivated FBS at […], 90 ul/well, overnight. After starvation for 3 hr at 37° C. under 5% CO2, Raw264.7 cells were treated with 10 ul/well various concentrations of compound or 0.5% DMSO for 30 min, and then stimulated with 10 ul/well 10 nM C5a for 5 min.
# 1.) Cells were fixed 110 μL of 4% pre-warmed Paraformaldehyde (2% final), incubate for 45 min at room temperature.
# 2.) Remove paraformaldehyde solution. Add 100 μL of ice-cold 0.1% Triton X-100 in PBS and leave at 4° C. for 30 min.
# 3.) Wash once in 100 μL PBS.
# 4.) Incubate with 100 μL blocking buffer (1% BSA, in PBS) for 2 hours at room temperature.
# 5.) Wash once for 5 min with 100 ul PBS.
# 6.) Incubate with 40 μL 1:200 dilution of phospho AKT (Ser473) rabbit antibody in antibody dilution buffer (0.1% BSA, in PBS) overnight at 4° C.
# 7.) Wash for 3 times for 10 min with 100 ul PBS.
# 8.) Incubate for 90 min at room temperature with 50 μL of goat anti-rabbit Alex488 antibody at a 1:1,000 dilution in antibody dilution buffer (0.1% BSA, in PBS). Cover plate in foil to keep out of light.
# 9.) Wash for 3 times for 10 min with 100 μL PBS.
# 10.) Add 50 μL of 1.5 μM Propidium Iodide solution to each well to determine cell number at a 1:1,000 dilution in PBS (stock: 1.5 mM).
# 11.) Incubate at room temperature for 30 min.
# 12.) Seal the plate with a black cover-seal (supplied with plate).
# 13.) Load the plate into the Acumen Explorer and scan with the appropriate instrument settings.
# p110α/p85α = biological target: T3, p110α/p85α (Homo sapiens, UniProt P42336); experiment: Transcreener KINASE Assay, kinase inhibition of p110α/p85α; format: biochemical
# T3 construct: purchased Invitrogen
# T3 sequence (P42336 whole entry, species assumed): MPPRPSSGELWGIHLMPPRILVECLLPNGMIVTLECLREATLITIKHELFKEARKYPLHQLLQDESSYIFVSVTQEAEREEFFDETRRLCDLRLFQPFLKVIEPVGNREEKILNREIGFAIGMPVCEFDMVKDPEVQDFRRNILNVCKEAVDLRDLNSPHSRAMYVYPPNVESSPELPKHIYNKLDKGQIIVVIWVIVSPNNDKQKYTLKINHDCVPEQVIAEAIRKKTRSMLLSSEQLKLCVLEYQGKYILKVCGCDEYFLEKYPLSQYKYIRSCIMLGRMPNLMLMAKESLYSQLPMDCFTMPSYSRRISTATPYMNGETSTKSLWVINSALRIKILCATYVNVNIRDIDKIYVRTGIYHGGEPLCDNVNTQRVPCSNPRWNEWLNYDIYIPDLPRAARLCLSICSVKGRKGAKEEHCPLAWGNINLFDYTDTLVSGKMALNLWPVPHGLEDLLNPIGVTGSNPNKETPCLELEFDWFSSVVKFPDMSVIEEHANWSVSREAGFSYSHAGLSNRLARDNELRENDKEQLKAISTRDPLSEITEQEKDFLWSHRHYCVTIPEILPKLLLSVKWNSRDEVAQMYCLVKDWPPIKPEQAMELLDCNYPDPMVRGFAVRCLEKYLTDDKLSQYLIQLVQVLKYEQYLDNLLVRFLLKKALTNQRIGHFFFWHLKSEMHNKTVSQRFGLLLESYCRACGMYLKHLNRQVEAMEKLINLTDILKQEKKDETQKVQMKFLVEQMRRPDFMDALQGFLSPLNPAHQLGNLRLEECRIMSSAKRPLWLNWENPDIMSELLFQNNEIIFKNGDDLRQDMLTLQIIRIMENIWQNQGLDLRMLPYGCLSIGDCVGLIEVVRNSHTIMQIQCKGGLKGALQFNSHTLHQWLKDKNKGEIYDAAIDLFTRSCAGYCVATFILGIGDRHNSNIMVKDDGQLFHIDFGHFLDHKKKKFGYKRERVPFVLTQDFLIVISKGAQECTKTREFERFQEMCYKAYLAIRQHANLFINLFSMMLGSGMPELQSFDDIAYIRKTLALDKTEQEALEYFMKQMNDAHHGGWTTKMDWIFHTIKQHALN
# T3 sequence (P27986 whole entry partner, species assumed): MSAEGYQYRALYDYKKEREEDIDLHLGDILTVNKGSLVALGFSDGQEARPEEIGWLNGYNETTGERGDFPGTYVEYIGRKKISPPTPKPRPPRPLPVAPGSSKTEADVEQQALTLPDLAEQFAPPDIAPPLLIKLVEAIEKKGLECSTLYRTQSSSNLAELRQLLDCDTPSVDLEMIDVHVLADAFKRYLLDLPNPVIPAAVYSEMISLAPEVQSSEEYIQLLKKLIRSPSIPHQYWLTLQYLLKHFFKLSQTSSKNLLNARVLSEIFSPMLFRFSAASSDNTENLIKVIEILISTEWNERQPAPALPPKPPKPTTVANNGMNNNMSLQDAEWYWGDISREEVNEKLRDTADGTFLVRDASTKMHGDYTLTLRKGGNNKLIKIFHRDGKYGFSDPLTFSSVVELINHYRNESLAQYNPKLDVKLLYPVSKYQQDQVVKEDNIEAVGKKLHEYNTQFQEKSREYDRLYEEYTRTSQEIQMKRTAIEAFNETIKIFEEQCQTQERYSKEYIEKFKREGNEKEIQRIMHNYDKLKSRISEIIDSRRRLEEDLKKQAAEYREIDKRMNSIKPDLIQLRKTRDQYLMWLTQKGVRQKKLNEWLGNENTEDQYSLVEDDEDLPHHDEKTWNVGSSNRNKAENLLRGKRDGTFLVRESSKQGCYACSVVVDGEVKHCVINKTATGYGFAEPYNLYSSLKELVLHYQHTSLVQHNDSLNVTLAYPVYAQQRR
# Experimental: (§1) PI3K kinases including p110α/p85α, p110δ/p85α and p110γ are purchased from Invitrogen, and p110β/p85α is from Millipore.
# (§2) Primary screening data and IC50 values are measured using Transcreener™ KINASE Assay (Bellbrook, Catalog #3003-10K). […] It is a universal, homogenous, high throughput screening (HTS) technology using a far-red, competitive fluorescence polarization immunoassay based on the detection of ADP to monitor the activity of enzymes that catalyze group transfer reactions. Briefly, the Transcreener KINASE Assay is designed as a simple two-part, endpoint assay.
# (§3) In the first step, the 25 ul kinase reaction is performed by preparing a reaction mixture containing 5 ul test compound (2% DMSO final concentration), 10 ul kinase, buffer (50 mM HEPES, 100 mM NaCl, 1 mM EGTA, 0.03% CHAPS, 3 mM MgCl2, and freshly supplemented 1 mM DTT), and 10 ul 30 uM PIP2/10 uM ATP. The plate is sealed and incubated for 80 min at room temperature. Next, 25 ul ADP detection mix is added per well. The plate is sealed again and incubated for 60 min at room temperature, and then measure fluorescence polarization by Tecan Infinite F500 Reader.
# (§4) Data is analyzed and IC50s are generated using the add-in software for Microsoft Excel, Xlfit™ (version 2.0). IH %=(ADP amount under 2% DMSO-ADP amount under test compound)/ADP amount under 2% DMSO.
# p110β/p85α = biological target: T4, p110β/p85α (Homo sapiens, UniProt P42338); experiment: Transcreener KINASE Assay, kinase inhibition of p110β/p85α; format: biochemical; details: for IC50: read-out: PI3Kβ IC50
# T4 construct: purchased Millipore
# T4 sequence (P42338 whole entry, species assumed): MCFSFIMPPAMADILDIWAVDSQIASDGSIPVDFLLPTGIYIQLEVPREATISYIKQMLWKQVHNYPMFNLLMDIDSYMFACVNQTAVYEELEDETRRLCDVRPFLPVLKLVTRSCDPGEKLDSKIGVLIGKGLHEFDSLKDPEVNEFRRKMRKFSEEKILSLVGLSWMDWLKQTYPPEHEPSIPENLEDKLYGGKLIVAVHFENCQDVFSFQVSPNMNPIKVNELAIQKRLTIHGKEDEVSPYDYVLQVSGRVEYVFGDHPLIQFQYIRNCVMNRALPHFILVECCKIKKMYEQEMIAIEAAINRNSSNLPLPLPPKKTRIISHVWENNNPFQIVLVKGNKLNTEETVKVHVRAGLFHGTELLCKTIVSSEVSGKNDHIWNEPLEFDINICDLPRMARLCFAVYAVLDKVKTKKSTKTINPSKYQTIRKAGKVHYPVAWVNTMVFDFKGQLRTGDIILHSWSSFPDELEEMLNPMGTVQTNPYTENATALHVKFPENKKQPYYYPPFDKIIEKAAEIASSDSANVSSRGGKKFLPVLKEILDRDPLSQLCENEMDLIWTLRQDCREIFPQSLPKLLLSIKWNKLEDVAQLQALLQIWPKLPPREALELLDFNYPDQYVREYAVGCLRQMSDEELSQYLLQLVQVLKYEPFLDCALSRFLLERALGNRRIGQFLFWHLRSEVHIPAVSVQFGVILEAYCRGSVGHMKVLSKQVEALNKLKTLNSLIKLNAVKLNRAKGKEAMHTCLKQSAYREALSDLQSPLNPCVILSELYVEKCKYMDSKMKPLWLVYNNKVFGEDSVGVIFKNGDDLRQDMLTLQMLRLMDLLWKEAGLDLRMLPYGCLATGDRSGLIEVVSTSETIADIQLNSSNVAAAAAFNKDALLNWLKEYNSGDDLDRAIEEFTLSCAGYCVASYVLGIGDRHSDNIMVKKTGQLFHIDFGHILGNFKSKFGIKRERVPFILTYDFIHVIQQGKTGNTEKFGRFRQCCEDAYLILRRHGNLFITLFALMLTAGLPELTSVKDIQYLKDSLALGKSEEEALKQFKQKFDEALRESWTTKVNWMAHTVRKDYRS
# T4 sequence (P27986 whole entry partner, species assumed): as the sequence (P27986 whole entry partner, species assumed) above
# Experimental: as §1, §2, §3, §4
# p110δ/p85α = biological target: T5, p110δ/p85α (Homo sapiens, UniProt O00329); experiment: Transcreener KINASE Assay, kinase inhibition of p110δ/p85α; format: biochemical; details: for IC50: read-out: PI3Kδ IC50
# T5 construct: purchased Invitrogen
# T5 sequence (O00329 whole entry, species assumed): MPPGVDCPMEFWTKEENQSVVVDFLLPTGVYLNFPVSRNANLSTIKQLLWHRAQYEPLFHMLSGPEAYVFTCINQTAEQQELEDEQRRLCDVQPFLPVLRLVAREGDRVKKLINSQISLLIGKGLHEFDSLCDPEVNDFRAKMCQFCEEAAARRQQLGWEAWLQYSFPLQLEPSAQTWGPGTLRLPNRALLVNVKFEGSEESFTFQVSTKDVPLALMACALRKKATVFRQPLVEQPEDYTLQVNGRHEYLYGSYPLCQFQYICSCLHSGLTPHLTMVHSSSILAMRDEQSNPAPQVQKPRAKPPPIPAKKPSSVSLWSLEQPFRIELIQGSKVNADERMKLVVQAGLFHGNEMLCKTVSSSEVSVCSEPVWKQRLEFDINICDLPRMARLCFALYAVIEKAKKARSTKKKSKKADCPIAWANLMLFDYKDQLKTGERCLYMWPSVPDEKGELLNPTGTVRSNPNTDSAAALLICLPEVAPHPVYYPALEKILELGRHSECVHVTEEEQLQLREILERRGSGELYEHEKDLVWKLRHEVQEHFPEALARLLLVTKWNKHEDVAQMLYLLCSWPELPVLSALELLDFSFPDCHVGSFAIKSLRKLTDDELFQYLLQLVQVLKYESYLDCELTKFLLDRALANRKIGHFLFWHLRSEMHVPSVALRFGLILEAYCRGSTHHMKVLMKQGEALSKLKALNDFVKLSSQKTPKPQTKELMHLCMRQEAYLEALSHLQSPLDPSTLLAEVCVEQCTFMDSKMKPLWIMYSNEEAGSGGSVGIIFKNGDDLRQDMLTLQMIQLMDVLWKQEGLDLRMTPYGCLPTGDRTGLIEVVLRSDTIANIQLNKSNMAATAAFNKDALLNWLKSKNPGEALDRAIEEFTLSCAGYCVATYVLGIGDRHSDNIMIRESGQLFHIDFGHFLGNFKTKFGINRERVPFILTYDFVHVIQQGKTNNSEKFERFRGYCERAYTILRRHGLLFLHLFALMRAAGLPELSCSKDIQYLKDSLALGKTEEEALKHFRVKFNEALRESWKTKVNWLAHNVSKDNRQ
# T5 sequence (P27986 whole entry partner, species assumed): as the sequence (P27986 whole entry partner, species assumed) above
# Experimental: as §1, §2, §3, §4
# T1 sequence (P48736 whole entry, species assumed): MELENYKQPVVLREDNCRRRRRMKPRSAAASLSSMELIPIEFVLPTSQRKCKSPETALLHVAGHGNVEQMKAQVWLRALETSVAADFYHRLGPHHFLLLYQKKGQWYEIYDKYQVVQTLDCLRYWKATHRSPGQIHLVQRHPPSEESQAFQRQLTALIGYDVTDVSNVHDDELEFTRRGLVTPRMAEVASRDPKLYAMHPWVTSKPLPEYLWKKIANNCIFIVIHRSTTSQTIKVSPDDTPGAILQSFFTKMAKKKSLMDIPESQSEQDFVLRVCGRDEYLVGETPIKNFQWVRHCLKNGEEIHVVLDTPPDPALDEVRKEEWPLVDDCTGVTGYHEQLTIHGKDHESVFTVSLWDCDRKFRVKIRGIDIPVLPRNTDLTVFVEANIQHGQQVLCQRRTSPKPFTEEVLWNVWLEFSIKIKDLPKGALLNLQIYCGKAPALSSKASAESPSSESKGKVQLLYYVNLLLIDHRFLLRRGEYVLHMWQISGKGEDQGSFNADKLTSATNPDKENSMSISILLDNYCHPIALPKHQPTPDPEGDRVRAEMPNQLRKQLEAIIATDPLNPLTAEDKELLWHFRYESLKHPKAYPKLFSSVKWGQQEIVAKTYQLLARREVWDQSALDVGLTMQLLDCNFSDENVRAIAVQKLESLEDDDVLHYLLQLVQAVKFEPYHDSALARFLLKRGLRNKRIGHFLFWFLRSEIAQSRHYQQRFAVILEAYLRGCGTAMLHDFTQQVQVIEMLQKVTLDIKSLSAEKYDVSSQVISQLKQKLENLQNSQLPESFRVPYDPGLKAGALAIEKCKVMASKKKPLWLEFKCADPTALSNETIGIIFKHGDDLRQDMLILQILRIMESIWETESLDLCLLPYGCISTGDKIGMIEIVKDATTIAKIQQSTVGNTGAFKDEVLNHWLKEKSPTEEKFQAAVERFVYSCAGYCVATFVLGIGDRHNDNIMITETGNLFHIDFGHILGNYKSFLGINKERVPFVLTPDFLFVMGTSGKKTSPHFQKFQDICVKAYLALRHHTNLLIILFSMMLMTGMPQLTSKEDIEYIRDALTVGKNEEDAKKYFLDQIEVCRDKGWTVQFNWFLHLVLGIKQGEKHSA
smiles,measurement,setting,value
CC(=O)c1c[nH]c2ncnc(N3C[C@@H](F)C[C@H]3c3nn4ccc(Cl)c4c(=O)n3-c3ccccc3)c12 [Compound 268],PI3Kγ IH % @ 1 uM,p110γ,100%
same,IC50,PI3Kγ,19 nM
N#Cc1c(N)ncnc1N1CCC[C@H]1c1nn2cccc2c(=O)n1-c1ccccc1 [Compound 5],PI3Kα IH % @ 1 uM,p110α/p85α,32.5%
same,PI3Kβ IH % @ 1 uM,p110β/p85α,46.4%
same,PI3Kδ IH % @ 1 uM,p110δ/p85α,98.3%
same,PI3Kγ IH % @ 1 uM,p110γ,69.6%
"CC(Nc1nc(N)ncc1C#N)c1cn2ccc(F)c2c(=O)n1-c1ccccc1 (single isomer, unassigned) [Compound 449]",IC50,p110β/p85α,45 nM
same,IC50,p110δ/p85α,1 nM
same,IC50,p110γ,4 nM
same,IC50,PI3Kγ,87 nM
Cc1nc(N)nc(N2CC[C@H]2c2nn3ccc(Cl)c3c(=O)n2-c2ccccc2)c1C#N [Compound 283],IC50,PI3Kγ,3 nM
Nc1nc2c(c(N3CC[C@H]3c3nn4ccc(Cl)c4c(=O)n3-c3ccccc3)n1)C(=O)CCN2 [Compound 241],IC50,PI3Kγ,22 nM
CC(=O)c1c[nH]c2ncnc(NC(C)c3cn4ccc(Cl)c4c(=O)n3-c3ccccc3)c12 (centres unmarked) [Compound 272],IC50,PI3Kγ,36 nM
O=c1c2c(F)ccn2nc([C@@H]2CCCN2c2ncnc3[nH]cnc23)n1-c1cccc(F)c1 [Compound 191],IC50,PI3Kγ,54 nM
"C=Cc1c[nH]c2ncnc(N3CCC[C@H]3c3nn4cccc4c(=O)n3-c3ccccc3)c12 [Compound 98, (S)-3-phenyl-2-(1-(5-vinyl-7H-pyrrolo[2,3-d]pyrimidin-4-yl)pyrrolidin-2-yl)pyrrolo[1,2-f][1,2,4]triazin-4(3H)-one]",PI3Kα IH % @ 1 uM,p110α/p85α,16.2%
same,PI3Kβ IH % @ 1 uM,p110β/p85α,15.2%
same,PI3Kδ IH % @ 1 uM,p110δ/p85α,88.4%
same,PI3Kγ IH % @ 1 uM,p110γ,87.9%
same,IC50,p110γ,99 nM
N#Cc1cnc(N)nc1N1CC[C@H]1c1nn2ccc(Cl)c2c(=O)n1-c1ccccc1 [Compound 212],IC50,p110α/p85α; read-out: PI3Kα IC50,> 1000 nM
CC(=O)c1cnc(N)nc1N1C[C@H](C)[C@H]1c1nn2ccc(F)c2c(=O)n1-c1ccccc1 [Compound 324],IC50,PI3Kγ,63 nM
N#Cc1c[nH]c2ncnc(N3CCC[C@H]3c3nn4ccc(C#N)c4c(=O)n3-c3ccccc3)c12 [Compound 113],PI3Kα IH % @ 1 uM,p110α/p85α,28.3%
same,PI3Kβ IH % @ 1 uM,p110β/p85α,74.9%
same,IC50,p110β/p85α,244 nM
same,PI3Kδ IH % @ 1 uM,p110δ/p85α,99.3%
same,IC50,p110δ/p85α,6 nM
same,PI3Kγ IH % @ 1 uM,p110γ,>100%
same,IC50,p110γ,43 nM
O=c1c2c(Cl)ccn2nc([C@@H]2CCCN2c2ncnc3[nH]cnc23)n1-c1ccccn1 [Compound 311],IC50,p110δ/p85α,< 0.5 nM
same,IC50,PI3Kγ,54 nM
CC(=O)c1c[nH]c2ncnc(N3CCC[C@H]3c3nn4ccc(Cl)c4c(=O)n3-c3ccccn3)c12 [Compound 340],IC50,PI3Kγ,45 nM
CC(=O)c1c[nH]c2ncnc(N3CCC[C@H]3c3nn4ccc(F)c4c(=O)n3-c3ccccc3)c12 [Compound 218],IC50,PI3Kγ,42 nM
N#Cc1cnc(N)nc1N1C[C@@H](F)C[C@H]1c1nn2ccc(Cl)c2c(=O)n1-c1ccccc1 [Compound 229],IC50,PI3Kγ,11 nM
"N#Cc1c[nH]c2ncnc(N3CC(=O)C[C@H]3c3nn4ccc(Cl)c4c(=O)n3-c3ccccc3)c12 [Compound 380, (S)-4-(2-(5-chloro-4-oxo-3-phenyl-3,4-dihydropyrrolo[2,1-f][1,2,4]triazin-2-yl)-4-oxopyrrolidin-1-yl)-7H-pyrrolo[2,3-d]pyrimidine-5-carbonitrile]",IC50,PI3Kγ,19 nM
O=c1c2c(Cl)ccn2nc([C@@H]2C[C@H](F)CN2c2ncnc3[nH]cnc23)n1-c1cccc(F)c1 [Compound 214],IC50,PI3Kγ,15 nM
O=c1c2cccn2nc([C@@H]2CCCN2c2ncnc3[nH]cc(Cl)c23)n1-c1ccccc1 [Compound 3],PI3Kα IH % @ 1 uM,p110α/p85α,12.0%
same,PI3Kβ IH % @ 1 uM,p110β/p85α,17.8%
same,PI3Kδ IH % @ 1 uM,p110δ/p85α,>100%
same,IC50,p110δ/p85α,15 nM
same,PI3Kγ IH % @ 1 uM,p110γ,82.5%
same,IC50,p110γ,365 nM
Nc1nc(N2CCC[C@H]2c2nn3cccc3c(=O)n2-c2ccccc2)c2nc[nH]c2n1 [Compound 2],PI3Kα IH % @ 1 uM,p110α/p85α,5.1%
same,PI3Kβ IH % @ 1 uM,p110β/p85α,38.0%
same,PI3Kδ IH % @ 1 uM,p110δ/p85α,98.2%
same,PI3Kγ IH % @ 1 uM,p110γ,98.8%
C[C@H]1CCN(c2nc(N)ncc2C#N)C1c1nn2ccc(Cl)c2c(=O)n1-c1ccccc1 (some centres unmarked) [Compound 236],IC50,p110β/p85α,81 nM
same,IC50,p110δ/p85α,2 nM
same,IC50,p110γ,4 nM
same,IC50,PI3Kγ,46 nM
"CC(Nc1ncnc2[nH]cc(F)c12)c1cc2ncc(Cl)n2c(=O)n1-c1ccccc1 (single isomer, unassigned) [Compound 450]",IC50,p110β/p85α,42 nM
same,IC50,p110δ/p85α,0.4 nM
same,IC50,p110γ,17 nM
same,IC50,PI3Kγ,72 nM
"CC(=O)c1cnc(N)nc1N1CCC[C@H]1c1nn2ccc(Cl)c2c(=O)n1-c1ccccc1 [Compound 369, (S)-2-(1-(5-acetyl-2-aminopyrimidin-4-yl)pyrrolidin-2-yl)-5-chloro-3-phenylpyrrolo[2,1-f][1,2,4]triazin-4(3H)-one]",IC50,PI3Kγ,22 nM
"CC(Nc1nc(N)nc2c1C(=O)CCN2)c1cn2ccc(F)c2c(=O)n1-c1ccccc1 (single isomer, unassigned) [Compound 407]",IC50,p110β/p85α,68 nM
same,IC50,p110δ/p85α,1 nM
same,IC50,p110γ,2 nM
same,IC50,PI3Kγ,63 nM
CC(=O)c1cnc(N)nc1N1C[C@H](C)[C@H]1c1nn2ccc(Cl)c2c(=O)n1-c1ccc(F)cc1 [Compound 206],IC50,PI3Kγ,5 nM
N#Cc1cnc(N)nc1N1CC(=O)C[C@H]1c1nn2ccc(Cl)c2c(=O)n1-c1ccccc1 [Compound 403],IC50,PI3Kγ,11 nM
CC(=O)c1cnc(N)nc1N1CC[C@H]1c1nn2ccc(F)c2c(=O)n1-c1ccccc1 [Compound 323],IC50,PI3Kγ,80 nM
N#Cc1cnc(N)nc1N1CCC[C@H]1c1nn2ccc(Cl)c2c(=O)n1-c1cccc(F)c1 [Compound 232],IC50,PI3Kγ,44 nM
N#Cc1cnc(N)nc1N1CCC[C@H]1c1nn2ccc(Cl)c2c(=O)n1-c1ccc(F)cc1 [Compound 231],IC50,PI3Kγ,15 nM
Nc1ncc(C(=O)C(F)(F)F)c(N2CC[C@H]2c2nn3ccc(Cl)c3c(=O)n2-c2ccccc2)n1 [Compound 325],IC50,p110β/p85α,> 1000 nM
same,IC50,PI3Kγ,80 nM
